Results as given in US20240409559A1, “CRYSTALLINE FORM OF AZALACTAM COMPOUND” (PFIZER INC., priority 2021, published 2024).

How the values were obtained:
[1] = Moisture sorption/desorption by dynamic vapor sorption (DVS), with post-DVS PXRD; type: physicochemical
Description: This example provides characterization data on PF-07265028 Form 1 from a sample obtained using a procedure disclosed in International Patent Publication No. WO2021/220185, using powder x-ray diffraction and dynamic vapor sorption to support the preparation of a disclosure. Form 1 is a crystalline hygroscopic tetrahydrate with multiple powder patterns depending on temperature and humidity. […] The dehydration risk can pose challenges to API isolation, storage and drug product manufacture. Maintaining the proper water content is considered to be difficult for Form 1.

[2] = Thermal analysis: dehydration by TGA; type: physicochemical

Row | Hygroscopicity (in words) [1] | Moisture Sorption/Desorption-Hydrate (DVS): Change in mass-ref (%) ([1]; 75% RH) | Moisture Sorption/Desorption-Hydrate (DVS): Change in mass-ref (%) ([1]; 90% RH) | Crystallinity after dehydration ([1]; after dehydration, PXRD after the water sorption experiment) | Post-DVS PXRD result ([1]; after water sorption experiment) | Moisture Sorption/Desorption-Hydrate (DVS): dehydration state ([1]; at 3% RH) | Moisture Sorption/Desorption-Hydrate (DVS): rehydrate at or below 10% RH ([1]; at or below 10% RH) | Rehydration at high humidity conditions ([1]; high humidity conditions, after dehydration) | Dehydration (TGA)-Hydrated/Solvated, weight loss [2] [% weight loss] | Post-DVS PXRD compared with in-going material ([1]; after DVS experiment) | Hygroscopicity: Moisture Sorption (DVS)-Anhydrous ([1]; at 60% RH) [% at 60% RH] | Hygroscopicity: Moisture Sorption (DVS)-Anhydrous ([1]; at 75% RH) [% at 75% RH] | Hygroscopicity: Moisture Sorption (DVS)-Anhydrous ([1]; at 90% RH) [% at 90% RH] | SMILES | Moisture Sorption/Desorption-Hydrate (DVS): Change in mass-ref (%) ([1]; at 60% RH)
1 | hygroscopic | ~−2.4 | ~−0.1 | can lose crystallinity | peak shifting and disorder observed | Completely dehydrated | did not | does not rehydrate | ~14 |  |  |  |  | CC[C@@H](N)c1nc(N2CCC[C@H]2C)cc2c1CN(c1cccc(-c3nnc4n3[C@@H](C)CC4)n1)C2=O [Form 1, 4-[(1R)-1-aminopropyl]-2-{6-[(5S)-5-methyl-6,7-dihydro-5H-pyrrolo[2,1-c][1,2,4]triazol-3-yl]pyridin-2-yl}-6-[(2R)-2-methylpyrrolidin-1-yl]-2,3-dihydro-1H-pyrrolo[3,4-c]pyridin-1-one] | Change in mass-ref (%) at 60% RH: ~−6.2%;
2 | non-hygroscopic |  |  |  |  |  |  |  |  | Post-DVS PXRD is consistent with in- | ~0.2 | ~0.2 | ~0.2 | CC[C@@H](N)c1nc(N2CCC[C@H]2C)cc2c1CN(c1cccc(-c3nnc4n3[C@@H](C)CC4)n1)C2=O [Form 2, 4-[(1R)-1-aminopropyl]-2-{6-[(5S)-5-methyl-6,7-dihydro-5H-pyrrolo[2,1-c][1,2,4]triazol-3-yl]pyridin-2-yl}-6-[(2R)-2-methylpyrrolidin-1-yl]-2,3-dihydro-1H-pyrrolo[3,4-c]pyridin-1-one] | 
